For 15 compounds, IC50 results are on record in patent US10538555B2, “Macrocyclic inhibitors of the PD-1/PD-L1 and CD80(B7-1)/PD-L1 protein/protein interactions” (BRISTOL-MYERS SQUIBB COMPANY, priority 2014, dated 2020).

*1 amine or outer side, *2 acyl side, *3 side chain or, on linkers, in order; H or OH if unused. Where a SMILES comes first, the peptide text is derived from it. Bridges are numbered along the chain shown (N, C = ends). [ ]: non-standard residue; d: D form. ξ: configuration not given here. Trp(1-CH2COOH) = N[C@@H](Cc1cn(CC(=O)O)c2ccccc12)C(=O)O; Phe(3,4,5-F3) = N[C@@H](Cc1cc(F)c(F)c(F)c1)C(=O)O; Pro(trans-4-F) = O=C(O)[C@@H]1C[C@@H](F)CN1; NMePhe(4-F) = CN[C@@H](Cc1ccc(F)cc1)C(=O)O; d(cisHyp) = O=C(O)[C@H]1C[C@@H](O)CN1; Bta = N[C@@H](Cc1csc2ccccc12)C(=O)O; NMeY = CN[C@@H](Cc1ccc(O)cc1)C(=O)O; Hyp = O=C(O)[C@@H]1C[C@@H](O)CN1; NMeF = CN[C@@H](Cc1ccccc1)C(=O)O; X1 = O=C([C@H]1COCCN1[*:1])[*:2]; dHyp = O=C(O)[C@H]1C[C@H](O)CN1; NMeNle = CCCC[C@H](NC)C(=O)O; NMeS = CN[C@@H](CO)C(=O)O; Pip = O=C(O)[C@@H]1CCCCN1; dPip = O=C(O)[C@H]1CCCCN1; hSer = N[C@@H](CCO)C(=O)O; NMeA = CN[C@@H](C)C(=O)O; Orn = NCCC[C@H](N)C(=O)O; Dab = NCC[C@H](N)C(=O)O; Dap = NC[C@H](N)C(=O)O; ξC = NC(CS)C(=O)O

This test deals with T1, Human PD-L1/PD-1 (Homo sapiens, UniProt Q9NZQ7).
T1 construct: TVMV protease cleavage site (C); made in house; host or cells: HEK293T cells
T1 sequence (Q9NZQ7 with tags, fused parts or gaps): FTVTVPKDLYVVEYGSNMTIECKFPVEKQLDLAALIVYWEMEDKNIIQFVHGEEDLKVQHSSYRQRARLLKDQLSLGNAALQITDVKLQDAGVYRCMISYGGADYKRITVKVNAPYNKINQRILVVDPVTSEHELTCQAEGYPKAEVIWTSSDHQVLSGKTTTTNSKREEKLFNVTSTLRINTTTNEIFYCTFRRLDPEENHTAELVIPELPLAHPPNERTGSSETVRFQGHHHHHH
In words: HTRF Human PD-L1/PD-1 binding assay (PD-1-Ig/PD-L1-His). Particulars: PD-L1-His 10 nM, PD-1-Ig 20 nM; class symbol; read-out: HTRF Human PD-L1/PD-1 Binding Assay IC50 Range. The method in brief:
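Inhibitors were preincubated 15 min with human PD-L1(18-239)-His (10 nM final), then PD-1(25-167)-Ig (20 nM final) was added for 15 min in dPBS/0.1% BSA/0.05% Tween-20. Eu-cryptate anti-Ig (1 nM) and APC anti-His (20 nM) were added; 665/620 nm ratio read after 30 min.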
On the technique in general: Time-resolved FRET reads energy transfer from a long-lived donor to a nearby acceptor.
As for `CCCC[C@H]1C(=O)N2C[C@H](O)C[C@@H]2C(=O)N2C[C@H](O)C[C@H]2C(=O)N[C@@H](C(C)C)C(=O)N(C)[C@@H](Cc2ccccc2)C(=O)N[C@@H](CCC(=O)O)C(=O)N2CCCC[C@@H]2C(=O)N[C@@H](Cc2c[nH]c3ccccc23)C(=O)N[C@@H](Cc2ccc(O)cc2)C(=O)N[C@@H](CCCN)C(=O)N[C@H](C(=O)NCC(N)=O)CSCC(=O)N[C@@H](Cc2cc(F)c(F)c(F)c2)C(=O)N(C)[C@@H](Cc2ccccc2)C(=O)N1C` [Example 3228] ({CH2CO}-[Phe(3,4,5-F3)][NMeF][NMeNle][d(cisHyp)][Hyp]V[NMeF]E[dPip]WY[Orn]CG-NH2; thioether N-13), the IC50 fell in the range of 10 to 99.9 nM. The value for `CCCC[C@H]1C(=O)N2CCC[C@@H]2C(=O)N[C@@H](CN)C(=O)N[C@@H](C(C)C)C(=O)N(C)[C@@H](Cc2ccccc2)C(=O)N[C@@H](CC(=O)O)C(=O)N2CCCC[C@@H]2C(=O)N[C@@H](Cc2c[nH]c3ccccc23)C(=O)N[C@@H](Cc2ccc(O)cc2)C(=O)N[C@@H](CC(C)C)C(=O)N[C@H](C(=O)NCC(N)=O)CSCC(=O)N[C@@H](Cc2cc(F)c(F)c(F)c2)C(=O)N(C)[C@@H](Cc2ccc(F)cc2)C(=O)N1C` [Example 10582] ({CH2CO}-[Phe(3,4,5-F3)][NMePhe(4-F)][NMeNle][dP][Dap]V[NMeF]D[dPip]WYLCG-NH2; thioether N-13) was 1 to 9.9 nM; that for `CC(C)C[C@@H]1NC(=O)[C@H](Cc2ccc(O)cc2)NC(=O)[C@H](Cc2c[nH]c3ccccc23)NC(=O)[C@H]2CCCCN2C(=O)[C@H](CCC(=O)O)NC(=O)[C@H](Cc2ccccc2)N(C)C(=O)[C@H](C(C)C)NC(=O)[C@H](CC(=O)O)NC(=O)[C@H]2CCCN2C(=O)[C@H](Cc2ccc(O)cc2)N(C)C(=O)[C@H](Cc2ccc(F)cc2)N(C)C(=O)[C@H](Cc2cc(F)c(F)c(F)c2)NC(=O)CSC[C@@H](C(=O)NCC(N)=O)NC1=O` [Example 10611] ({CH2CO}-[Phe(3,4,5-F3)][NMePhe(4-F)][NMeY][dP]DV[NMeF]E[dPip]WYLCG-NH2; thioether N-13) was 1 to 9.9 nM. The value for `CCCC[C@H]1C(=O)N2C[C@@H](O)C[C@@H]2C(=O)N[C@@H](CC(=O)O)C(=O)N[C@@H](C(C)C)C(=O)N(C)[C@@H](Cc2ccccc2)C(=O)N[C@@H](Cc2ccc(O)cc2)C(=O)N2C[C@@H](O)C[C@@H]2C(=O)N[C@@H](Cc2c[nH]c3ccccc23)C(=O)N[C@@H](Cc2ccc(O)cc2)C(=O)N[C@@H](CCCN)C(=O)N[C@H](C(=O)NCC(N)=O)CSCC(=O)N[C@@H](Cc2cc(F)c(F)c(F)c2)C(=O)N(C)[C@@H](Cc2ccccc2)C(=O)N1C` [Example 9274] ({CH2CO}-[Phe(3,4,5-F3)][NMeF][NMeNle][dHyp]DV[NMeF]Y[dHyp]WY[Orn]CG-NH2; thioether N-13) was 1 to 9.9 nM; that for `CCCC[C@H]1C(=O)N(C)[C@@H](CO)C(=O)N[C@@H](CCC(=O)O)C(=O)N[C@H](C(=O)NCC(N)=O)CSCC(=O)N[C@@H](Cc2ccc(O)cc2)C(=O)N2CCCC[C@H]2C(=O)N[C@@H](CC(=O)O)C(=O)N2CCC[C@H]2C(=O)N[C@@H](CN)C(=O)N[C@@H](CCC(=O)O)C(=O)N2C[C@H](O)C[C@H]2C(=O)N[C@@H](Cc2c[nH]c3ccccc23)C(=O)N[C@@H](CO)C(=O)N[C@@H](Cc2c[nH]c3ccccc23)C(=O)N1C` [Example 1309] ({CH2CO}-Y[Pip]DP[Dap]E[Hyp]WSW[NMeNle][NMeS]ECG-NH2; thioether N-14) was 10 to 99.9 nM; that for `CCCC[C@H]1C(=O)N(C)[C@@H](CCCC)C(=O)N[C@@H](CC(C)C)C(=O)N[C@H](C(=O)NCC(N)=O)CSCC(=O)N[C@@H](Cc2ccc(O)cc2)C(=O)N(C)[C@@H](C)C(=O)N[C@@H](CCN)C(=O)N2CCC[C@H]2C(=O)N[C@@H](Cc2cnc[nH]2)C(=O)N[C@@H](CCC(=O)O)C(=O)N2C[C@H](O)C[C@H]2C(=O)N[C@@H](Cc2c[nH]c3ccccc23)C(=O)N[C@@H](CO)C(=O)N[C@@H](Cc2cn(CC(=O)O)c3ccccc23)C(=O)N1C` [Example 6236] ({CH2CO}-Y[NMeA][Dab]PHE[Hyp]WS[Trp(1-CH2COOH)][NMeNle][NMeNle]LCG-NH2; thioether N-14) was 1 to 9.9 nM.

`CCCC[C@H]1C(=O)N(C)[C@@H](CCCC)C(=O)N[C@@H](CCCN)C(=O)N[C@H](C(=O)NCC(N)=O)CSCC(=O)N[C@@H](Cc2ccc(OC)cc2)C(=O)N(C)[C@@H](C)C(=O)N[C@@H](CC(N)=O)C(=O)N2CCC[C@H]2C(=O)N[C@@H](CC(N)=O)C(=O)N[C@@H](CC(C)C)C(=O)N2C[C@H](F)C[C@H]2C(=O)N[C@@H](Cc2c[nH]c3ccccc23)C(=O)N[C@@H](C)C(=O)N[C@@H](Cc2c[nH]c3ccccc23)C(=O)N1C` [Example 7084] ({CH2CO}-Y(Me)[NMeA]NPNL[Pro(trans-4-F)]WAW[NMeNle][NMeNle][Orn]CG-NH2; thioether N-14): the IC50 lay in the range of 1 to 9.9 nM. The value for `CCCC[C@H]1C(=O)N[C@@H](CC(N)=O)C(=O)N2CCC[C@H]2C(=O)N[C@@H](CO)C(=O)N[C@@H](CCO)C(=O)N2CCC[C@H]2C(=O)N[C@@H](Cc2c[nH]c3ccccc23)C(=O)N[C@@H](CCO)C(=O)N[C@@H](Cc2c[nH]c3ccccc23)C(=O)N(C)[C@@H](C)C(=O)N(C)[C@@H](C)C(=O)N[C@@H](CCCCN)C(=O)NC(C(=O)NCC(N)=O)CSCC(=O)N[C@@H](Cc2ccc(O)cc2)C(=O)N1C` (stereo partly drawn) [Example 10214] ({CH2CO}-Y[NMeNle]NPS[hSer]PW[hSer]W[NMeA][NMeA]K[ξC]G-NH2; thioether N-14) was 1000 to 10000 nM; that for `CCCC[C@H]1C(=O)N(C)CC(=O)N[C@@H](CC(N)=O)C(=O)N[C@@H](C(C)C)C(=O)N(C)[C@@H](Cc2ccccc2)C(=O)N[C@@H](Cc2ccc(O)cc2)C(=O)N(C)CC(=O)N[C@@H](Cc2c[nH]c3ccccc23)C(=O)N[C@@H](Cc2ccc(O)cc2)C(=O)N[C@@H](CCCN)C(=O)N[C@H](C(=O)NCC(N)=O)CSCC(=O)N[C@@H](Cc2ccccc2)C(=O)N(C)[C@@H](Cc2ccncc2)C(=O)N1C` (single isomer, unassigned) [Example 3638-A] was 1000 to 10000 nM.

Turning to `CCCC[C@H]1C(=O)N2C[C@H](O)C[C@@H]2C(=O)N[C@@H](CC(=O)O)C(=O)N[C@@H](C(C)C)C(=O)N(C)[C@@H](Cc2ccccc2)C(=O)N[C@@H](CCCN)C(=O)N2CCOC[C@@H]2C(=O)N[C@@H](Cc2c[nH]c3ccccc23)C(=O)N[C@@H](Cc2ccc(O)cc2)C(=O)N[C@@H](CCOC)C(=O)N[C@H](C(=O)NCC(N)=O)CSCC(=O)N[C@@H](Cc2cc(F)c(F)c(F)c2)C(=O)N(C)[C@@H](Cc2ccccc2)C(=O)N1C` [Example 10162] ({CH2CO}-[Phe(3,4,5-F3)][NMeF][NMeNle][d(cisHyp)]DV[NMeF][Orn][X1]WY[hSer](Me)CG-NH2; thioether N-13), the IC50 lay within 1 to 9.9 nM. As to `CCCC[C@H]1C(=O)N(C)[C@@H](CCCC)C(=O)N[C@@H](CCC(=O)O)C(=O)N[C@H](C(=O)NCC(N)=O)CSCC(=O)N[C@@H](Cc2ccc(O)cc2)C(=O)N2CCCC[C@H]2C(=O)N[C@@H](CC(=O)O)C(=O)N2CCC[C@H]2C(=O)N[C@@H](Cc2cnc[nH]2)C(=O)N[C@@H](CCC(=O)O)C(=O)N2C[C@H](O)C[C@H]2C(=O)N[C@@H](Cc2c[nH]c3ccccc23)C(=O)N[C@@H](CO)C(=O)N[C@@H](Cc2csc3ccccc23)C(=O)N1C` [Example 1512] ({CH2CO}-Y[Pip]DPHE[Hyp]WS[Bta][NMeNle][NMeNle]ECG-NH2; thioether N-14), the IC50 lay in the range of 10 to 99.9 nM. Turning to `CCCC[C@H]1C(=O)N(C)[C@@H](CCCC)C(=O)N[C@@H](CCC(=O)O)C(=O)N[C@H](C(=O)NCC(N)=O)CSCC(=O)N[C@@H](Cc2ccc(O)cc2)C(=O)N(C)[C@@H](C)C(=O)N[C@@H](CC(N)=O)C(=O)N2CCC[C@H]2C(=O)N[C@@H](Cc2c[nH]cn2)C(=O)N[C@@H](CCC(N)=O)C(=O)N2C[C@H](O)C[C@H]2C(=O)N[C@@H](Cc2c[nH]c3ccccc23)C(=O)N[C@@H](CCN)C(=O)N[C@@H](Cc2c[nH]c3ccccc23)C(=O)N1C` [Example 5223] ({CH2CO}-Y[NMeA]NPHQ[Hyp]W[Dab]W[NMeNle][NMeNle]ECG-NH2; thioether N-14), the IC50 was 1 to 9.9 nM. For `CCCC[C@H]1C(=O)N2CCC[C@@H]2C(=O)N[C@@H](CC(=O)O)C(=O)N[C@@H](C(C)C)C(=O)N(C)[C@@H](Cc2ccccc2)C(=O)N[C@@H](CCC(=O)O)C(=O)N2CCOC[C@@H]2C(=O)N[C@@H](Cc2c[nH]c3ccccc23)C(=O)N[C@@H](Cc2ccc(O)cc2)C(=O)N[C@@H](CN)C(=O)N[C@H](C(=O)NCC(N)=O)CSCC(=O)N[C@@H](Cc2cc(F)c(F)c(F)c2)C(=O)N(C)[C@@H](Cc2ccc(F)cc2)C(=O)N1C` [Example 10606] ({CH2CO}-[Phe(3,4,5-F3)][NMePhe(4-F)][NMeNle][dP]DV[NMeF]E[X1]WY[Dap]CG-NH2; thioether N-13), the IC50 was in the range of 1 to 9.9 nM. Turning to `CCCC[C@H]1C(=O)N(C)[C@@H](CCCC)C(=O)N[C@@H](CCC(=O)O)C(=O)N[C@H](C(=O)NCC(N)=O)CSCC(=O)N[C@@H](Cc2ccc(OC)cc2)C(=O)N(C)[C@@H](C)C(=O)N[C@@H](CC(=O)O)C(=O)N2CCC[C@H]2C(=O)N[C@@H](Cc2cnc[nH]2)C(=O)N[C@@H](CCCCN)C(=O)N2C[C@H](O)C[C@H]2C(=O)N[C@@H](Cc2c[nH]c3ccccc23)C(=O)N[C@@H](CC(=O)O)C(=O)N[C@@H](Cc2c[nH]c3ccccc23)C(=O)N1C` [Example 7131] ({CH2CO}-Y(Me)[NMeA]DPHK[Hyp]WDW[NMeNle][NMeNle]ECG-NH2; thioether N-14), the IC50 lay within 1 to 9.9 nM. For `CCCC[C@H]1C(=O)N(C)[C@@H](CCCC)C(=O)N[C@@H](CC(C)C)C(=O)NC(C(=O)NCC(N)=O)CSCC(=O)N[C@@H](Cc2ccc(O)cc2)C(=O)N(C)[C@@H](C)C(=O)N[C@@H](CC(N)=O)C(=O)N2CCC[C@H]2C(=O)N[C@@H](CC(N)=O)C(=O)N[C@@H](CC(C)C)C(=O)N2CCC[C@H]2C(=O)N[C@@H](Cc2c[nH]c3ccccc23)C(=O)N[C@@H](CO)C(=O)N[C@@H](Cc2c[nH]c3ccccc23)C(=O)N1C` (stereo partly drawn) [Example 9161] ({CH2CO}-Y[NMeA]NPNLPWSW[NMeNle][NMeNle]L[ξC]G-NH2; thioether N-14), the IC50 fell in the range of 1 to 9.9 nM.
